Patent US20230293407A1, “Compositions Comprising (Bio)-Alkanediols with Antimicrobials for Product Protection” (Symrise AG, priority 2020, published 2023)

Key:
Experiment in all cases: preservation efficacy test (PET), European Pharmacopoeia 5.1.3
Type in all cases: cell-based
Pseudomonas aeruginosa = details: for count at 2 days / count at 7 days / count at 14 days / count at 28 days: PA, use concentration in label; for count at 7 days / PA germ count, 7 days: 7 days after inoculation; for count at 14 days / PA germ count, 14 days: 14 days after inoculation; for count at 28 days / PA germ count, 28 days: 28 days after inoculation
Candida albicans = system: Candida albicans
Staphylococcus aureus = details: for count at 7 days / SA germ count, 7 days: 7 days after inoculation; for count at 14 days / SA germ count, 14 days: 14 days after inoculation; for count at 28 days / SA germ count, 28 days: 28 days after inoculation
Escherichia coli = details: for count at 7 days / EC germ count, 7 days: 7 days after inoculation; for count at 14 days / EC germ count, 14 days: 14 days after inoculation; for count at 28 days / EC germ count, 28 days: 28 days after inoculation
[1] = CA, 14 days after inoculation, use concentration in label
[2] = CA, 28 days after inoculation, use concentration in label
[3] = substance at given % in test formulation
[4] = 2 days after inoculation, substance at given % in test formulation
[5] = in wet wipes, 2 days after inoculation

SMILES: CCCCCC(O)CO (stereo not drawn) [0.4 % 1,2-heptanediol]
- count at 2 days (Pseudomonas aeruginosa; 2 days after inoculation): 1
- count at 7 days (Pseudomonas aeruginosa): 1
- count at 14 days (Pseudomonas aeruginosa): 1
- count at 28 days (Pseudomonas aeruginosa): 1
- count at 7 days (Candida albicans; CA, 7 days after inoculation, use concentration in label): 39.000
- count at 14 days (Candida albicans; [1]): 590
- count at 28 days (Candida albicans; [2]): 27
- count at 2 days (Staphylococcus aureus; SA, 2 days after inoculation, use concentration in label): 1
- count at 7 days (Staphylococcus aureus; SA, use concentration in label): 1
- count at 14 days (Staphylococcus aureus; SA, use concentration in label): 1
- count at 28 days (Staphylococcus aureus; SA, use concentration in label): 1
- count at 2 days (Escherichia coli; EC, 2 days after inoculation, use concentration in label): 140
- count at 7 days (Escherichia coli; EC, use concentration in label): 1
- count at 14 days (Escherichia coli; EC, use concentration in label): 1
- count at 28 days (Escherichia coli; EC, use concentration in label): 1

SMILES: CCCCCC(O)C(C)O (stereo not drawn) [0.1% 2,3-Octanediol]
- PA germ count, 14 days (Pseudomonas aeruginosa; [3]): 1
- PA germ count, 28 days (Pseudomonas aeruginosa; [3]): 1
- SA germ count, 7 days (Staphylococcus aureus; [3]): 9.500
- SA germ count, 14 days (Staphylococcus aureus; [3]): 1
- SA germ count, 28 days (Staphylococcus aureus; [3]): 1
- EC germ count, 2 days (Escherichia coli; [4]): 690.000
- EC germ count, 7 days (Escherichia coli; [3]): 11.000
- EC germ count, 14 days (Escherichia coli; [3]): 1.200
- EC germ count, 28 days (Escherichia coli; [3]): 1

SMILES: CCCCC(O)C(C)O (stereo not drawn) [0.4% 2,3 Heptandiol]
- count at 2 days (Pseudomonas aeruginosa; 2 days after inoculation): 1
- count at 7 days (Pseudomonas aeruginosa): 1
- count at 14 days (Pseudomonas aeruginosa): 1
- count at 28 days (Pseudomonas aeruginosa): 1
- count at 14 days (Candida albicans; [1]): 39.000
- count at 28 days (Candida albicans; [2]): 76.000
- count at 7 days (Staphylococcus aureus; SA, use concentration in label): 1
- count at 14 days (Staphylococcus aureus; SA, use concentration in label): 1
- count at 28 days (Staphylococcus aureus; SA, use concentration in label): 1
- count at 7 days (Escherichia coli; EC, use concentration in label): 1
- count at 14 days (Escherichia coli; EC, use concentration in label): 1
- count at 28 days (Escherichia coli; EC, use concentration in label): 1

SMILES: CCCCCC(O)C(C)O (stereo not drawn) [0.1% 2,3-octanediol]
- PA germ count, 7 days (Pseudomonas aeruginosa; in wet wipes): 630.000
- PA germ count, 14 days (Pseudomonas aeruginosa; in wet wipes): 310.000
- PA germ count, 28 days (Pseudomonas aeruginosa; in wet wipes): 27.000
- SA germ count, 2 days (Staphylococcus aureus; [5]): 50
- SA germ count, 7 days (Staphylococcus aureus; in wet wipes): 50
- SA germ count, 14 days (Staphylococcus aureus; in wet wipes): 50
- SA germ count, 28 days (Staphylococcus aureus; in wet wipes): 50
- EC germ count, 14 days (Escherichia coli; in wet wipes): 850.000
- EC germ count, 28 days (Escherichia coli; in wet wipes): 1.600

SMILES: CCCCCCCC(=O)OCC(O)CO (stereo not drawn) [0.2% glyceryl caprylate]
- PA germ count, 2 days (Pseudomonas aeruginosa; [4]): 1
- PA germ count, 7 days (Pseudomonas aeruginosa; [3]): 1
- PA germ count, 14 days (Pseudomonas aeruginosa; [3]): 1
- PA germ count, 28 days (Pseudomonas aeruginosa; [3]): 1
- CA germ count, 2 days (Candida albicans; [4]): 12.000
- CA germ count, 7 days (Candida albicans; 7 days after inoculation, substance at given % in test formulation): 260
- CA germ count, 14 days (Candida albicans; 14 days after inoculation, substance at given % in test formulation): 1
- CA germ count, 28 days (Candida albicans; 28 days after inoculation, substance at given % in test formulation): 1
- SA germ count, 2 days (Staphylococcus aureus; [4]): 1
- SA germ count, 7 days (Staphylococcus aureus; [3]): 1
- SA germ count, 14 days (Staphylococcus aureus; [3]): 1
- SA germ count, 28 days (Staphylococcus aureus; [3]): 1
- EC germ count, 2 days (Escherichia coli; [4]): 1
- EC germ count, 7 days (Escherichia coli; [3]): 1
- EC germ count, 14 days (Escherichia coli; [3]): 1
- EC germ count, 28 days (Escherichia coli; [3]): 1

SMILES: Cc1cc(O)ccc1C(C)C [0.1% o-Cymen-5-ol]
- count at 7 days (Pseudomonas aeruginosa): 250.000
- count at 14 days (Pseudomonas aeruginosa): 900.000
- count at 28 days (Pseudomonas aeruginosa): 460.000
- count at 28 days (Candida albicans; [2]): 690.000
- count at 7 days (Staphylococcus aureus; SA, use concentration in label): 18.000
- count at 14 days (Staphylococcus aureus; SA, use concentration in label): 1
- count at 28 days (Staphylococcus aureus; SA, use concentration in label): 1
- count at 7 days (Escherichia coli; EC, use concentration in label): 270.000
- count at 14 days (Escherichia coli; EC, use concentration in label): 270.000
- count at 28 days (Escherichia coli; EC, use concentration in label): 51.000

SMILES: CCCCCCC(O)CO (stereo not drawn) [0.1% 1,2-octanediol]
- PA germ count, 14 days (Pseudomonas aeruginosa; in wet wipes): 750.000
- PA germ count, 28 days (Pseudomonas aeruginosa; in wet wipes): 350.000
- SA germ count, 2 days (Staphylococcus aureus; [5]): 425
- SA germ count, 7 days (Staphylococcus aureus; in wet wipes): 50
- SA germ count, 14 days (Staphylococcus aureus; in wet wipes): 50
- SA germ count, 28 days (Staphylococcus aureus; in wet wipes): 50
- EC germ count, 28 days (Escherichia coli; in wet wipes): 2.300
